Measurements published in article PMC11873939, “Target Identification with Live-Cell Photoaffinity Labeling and Mechanism of Action Elucidation of ARN23765, a Highly Potent CFTR Corrector” (Journal of Medicinal Chemistry, 2025).

Legend:
[1] = target: T1, R170G-CFTR (Homo sapiens, UniProt P13569, R170G); experiment: Protein maturation assay (WB, band C/(C+B)) in transfected HEK293 cells; assay type: cell-based; conditions: HEK293, 24 h, 10 nM
T1 construct: CFTR identification in pull-down studies and analysis of full-length CFTR in protein maturation assays; expressed in transfected cells; host or cells: HEK293 (transient)
Protocol: (§1) HEK293 cells were plated in 24-wells at around 80% of confluence and transfected with constructs coding for F508del-CFTR or mutants using JetPEI reagent (101000053, Polyplus Technology) following the manufacturer’s instructions. After 24 h, the correctors were added for a further 24 h. Correctors were used at the following concentrations: ARN23765 (10 nM), VX-445 (3 μM), and 3151 (10 μM). For binding site analysis experiments, the cells were kept either at 37 °C (Figure S8) or moved to 30 °C (Figure 9) during incubation with the selected correctors. VX-445 and corrector 3151 were mixed together as a control for maximal protein correction. DMSO (0.2%) was added to nontreated controls. After treatment, cells were lysed in RIPA buffer [50 mM tris-HCl pH 8, 150 mM NaCl, 1% NP40, 0.5% sodium deoxycolate, 0.1% SDS, 2.0 mM EDTA] and lysates were analyzed with WB, as described in the supplementary methods of the Supporting Information.

[2] = target: T2, F508del-CFTR double mutants (K68I, N71I, R74A, F81A, A198Y, W361A, S364F) (Homo sapiens, UniProt P13569, DEL508-508/S364F); experiment: Protein maturation assay (WB) of F508del-CFTR double mutants in transfected HEK293 cells; assay type: cell-based; conditions: F508del/S364F-CFTR; HEK293, 10 nM, 24 h
T2 construct: CFTR identification in pull-down studies and analysis of full-length CFTR in protein maturation assays; expressed in transfected cells; host or cells: HEK293 (transient, pCDNA3.1 constructs, JetPEI)
Protocol: (§2) To confirm in cells the above-predicted binding site for ARN23765, we introduced the investigated single-site mutations into the F508del-CFTR coding sequence. The rescue of double mutant proteins (F508del + new mutation) by ARN23765 was assessed with WB analysis of protein maturation and evaluation of channel activity (FLIPR assay)[40] in transfected HEK293 cells. Since correctors 3151 (type II)[16] and VX-445 (type III)[18] have been reported to bind to different CFTR sites, we used these compounds as controls. As expected, ARN23765-induced maturation of F508del-CFTR was not affected by the N71I substitution. […] Indeed, the corrector was no longer able to promote protein maturation (Figure 9A and S8A). […] The results of protein maturation analysis were mostly confirmed by functional data (Figure 9B and S8B), in which the channel activity of double-mutated proteins was evaluated in terms of the change in cell membrane potential change (FLIPR assay).
as §1, with “Information. […]” for “Information.”
(§3) Site-directed mutagenesis
(§4) Desired mutations were introduced using the QuikChange II XL site-directed mutagenesis kit (200522,
(§5) Agilent Technologies) according to the manufacturer’s instructions. F508del-CFTR pCDNA3.1 was used
(§6) as a template for the synthesis of mutated constructs K68I/F508del-CFTR, N71I/F508del-CFTR,
(§7) S364F/F508del-CFTR. The introduction of the mutation and the whole CFTR sequence were checked by
(§8) Sanger sequencing. Mutants R1070W/F508del-CFTR and R170G-
(§9) CFTR were produced as previously described.4

[3] = target: T3, F508del-CFTR double mutants (K68I, N71I, R74A, F81A, A198Y, W361A, S364F) (Homo sapiens, UniProt P13569, DEL508-508/N71I); experiment: as above; assay type: cell-based; conditions: F508del/N71I-CFTR; HEK293, 10 nM, 24 h
T3 construct: CFTR identification in pull-down studies and analysis of full-length CFTR in protein maturation assays; expressed in transfected cells; host or cells: HEK293 (transient, pCDNA3.1 constructs, JetPEI)
Protocol: as §2
as §1, with “Information. […]” for “Information.”
as §3, §4, §5, §6, §7, §8, §9

[4] = target: T4, F508del-CFTR double mutants (K68I, N71I, R74A, F81A, A198Y, W361A, S364F) (Homo sapiens, UniProt P13569, DEL508-508/K68I); experiment: as above; assay type: cell-based; conditions: F508del/K68I-CFTR; HEK293, 10 nM, 24 h
T4 construct: CFTR identification in pull-down studies and analysis of full-length CFTR in protein maturation assays; expressed in transfected cells; host or cells: HEK293 (transient, pCDNA3.1 constructs, JetPEI)
Protocol: as §2
as §1, with “Information. […]” for “Information.”
as §3, §4, §5, §6, §7, §8, §9

[5] = target: T5, F508del-CFTR (Homo sapiens, UniProt P13569, DEL508-508); set-up: method as in PMID 32128418; conditions: bronchial epithelial cells from F508del-CFTR CF individuals; cited from earlier work
T5 construct: expressed in transfected cells
T5 sequence (P13569 with tags, fused parts or gaps DEL508-508): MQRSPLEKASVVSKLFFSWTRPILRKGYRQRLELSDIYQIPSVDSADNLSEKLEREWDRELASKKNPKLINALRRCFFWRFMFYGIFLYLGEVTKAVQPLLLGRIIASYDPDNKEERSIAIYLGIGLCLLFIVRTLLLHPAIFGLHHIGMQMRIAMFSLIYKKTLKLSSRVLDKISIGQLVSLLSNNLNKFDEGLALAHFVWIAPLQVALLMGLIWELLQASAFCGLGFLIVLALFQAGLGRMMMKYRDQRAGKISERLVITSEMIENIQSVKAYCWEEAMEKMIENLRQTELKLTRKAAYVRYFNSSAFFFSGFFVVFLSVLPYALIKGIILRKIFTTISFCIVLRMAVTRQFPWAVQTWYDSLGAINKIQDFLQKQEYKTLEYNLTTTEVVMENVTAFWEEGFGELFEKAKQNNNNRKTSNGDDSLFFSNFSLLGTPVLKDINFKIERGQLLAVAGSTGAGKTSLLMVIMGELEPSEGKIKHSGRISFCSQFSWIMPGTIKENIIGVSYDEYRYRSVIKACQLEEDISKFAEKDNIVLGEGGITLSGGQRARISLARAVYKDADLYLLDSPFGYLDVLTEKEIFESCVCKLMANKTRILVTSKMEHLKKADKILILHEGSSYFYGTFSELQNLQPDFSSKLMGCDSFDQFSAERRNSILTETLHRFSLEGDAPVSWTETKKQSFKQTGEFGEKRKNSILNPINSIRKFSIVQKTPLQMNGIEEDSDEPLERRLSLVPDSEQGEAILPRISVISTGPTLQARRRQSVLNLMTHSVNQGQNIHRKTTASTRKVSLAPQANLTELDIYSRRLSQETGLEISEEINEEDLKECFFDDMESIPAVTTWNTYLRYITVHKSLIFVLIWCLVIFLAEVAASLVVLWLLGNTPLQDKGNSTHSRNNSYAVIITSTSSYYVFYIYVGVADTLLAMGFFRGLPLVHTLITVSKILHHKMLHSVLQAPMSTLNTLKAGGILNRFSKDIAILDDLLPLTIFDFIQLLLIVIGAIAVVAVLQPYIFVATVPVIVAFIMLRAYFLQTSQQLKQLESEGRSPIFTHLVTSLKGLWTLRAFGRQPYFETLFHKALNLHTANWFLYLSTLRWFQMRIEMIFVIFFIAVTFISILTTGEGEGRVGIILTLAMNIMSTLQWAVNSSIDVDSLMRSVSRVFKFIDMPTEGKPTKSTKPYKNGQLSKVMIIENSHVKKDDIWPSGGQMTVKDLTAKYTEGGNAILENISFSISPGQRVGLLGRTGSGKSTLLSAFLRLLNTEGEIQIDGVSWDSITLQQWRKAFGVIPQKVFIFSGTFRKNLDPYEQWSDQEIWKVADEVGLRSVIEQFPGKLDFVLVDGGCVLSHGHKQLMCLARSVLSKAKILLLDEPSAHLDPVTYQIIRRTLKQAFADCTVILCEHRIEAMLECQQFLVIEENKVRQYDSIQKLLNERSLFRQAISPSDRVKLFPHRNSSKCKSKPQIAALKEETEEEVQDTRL

T1 sequence (P13569 whole entry R170G): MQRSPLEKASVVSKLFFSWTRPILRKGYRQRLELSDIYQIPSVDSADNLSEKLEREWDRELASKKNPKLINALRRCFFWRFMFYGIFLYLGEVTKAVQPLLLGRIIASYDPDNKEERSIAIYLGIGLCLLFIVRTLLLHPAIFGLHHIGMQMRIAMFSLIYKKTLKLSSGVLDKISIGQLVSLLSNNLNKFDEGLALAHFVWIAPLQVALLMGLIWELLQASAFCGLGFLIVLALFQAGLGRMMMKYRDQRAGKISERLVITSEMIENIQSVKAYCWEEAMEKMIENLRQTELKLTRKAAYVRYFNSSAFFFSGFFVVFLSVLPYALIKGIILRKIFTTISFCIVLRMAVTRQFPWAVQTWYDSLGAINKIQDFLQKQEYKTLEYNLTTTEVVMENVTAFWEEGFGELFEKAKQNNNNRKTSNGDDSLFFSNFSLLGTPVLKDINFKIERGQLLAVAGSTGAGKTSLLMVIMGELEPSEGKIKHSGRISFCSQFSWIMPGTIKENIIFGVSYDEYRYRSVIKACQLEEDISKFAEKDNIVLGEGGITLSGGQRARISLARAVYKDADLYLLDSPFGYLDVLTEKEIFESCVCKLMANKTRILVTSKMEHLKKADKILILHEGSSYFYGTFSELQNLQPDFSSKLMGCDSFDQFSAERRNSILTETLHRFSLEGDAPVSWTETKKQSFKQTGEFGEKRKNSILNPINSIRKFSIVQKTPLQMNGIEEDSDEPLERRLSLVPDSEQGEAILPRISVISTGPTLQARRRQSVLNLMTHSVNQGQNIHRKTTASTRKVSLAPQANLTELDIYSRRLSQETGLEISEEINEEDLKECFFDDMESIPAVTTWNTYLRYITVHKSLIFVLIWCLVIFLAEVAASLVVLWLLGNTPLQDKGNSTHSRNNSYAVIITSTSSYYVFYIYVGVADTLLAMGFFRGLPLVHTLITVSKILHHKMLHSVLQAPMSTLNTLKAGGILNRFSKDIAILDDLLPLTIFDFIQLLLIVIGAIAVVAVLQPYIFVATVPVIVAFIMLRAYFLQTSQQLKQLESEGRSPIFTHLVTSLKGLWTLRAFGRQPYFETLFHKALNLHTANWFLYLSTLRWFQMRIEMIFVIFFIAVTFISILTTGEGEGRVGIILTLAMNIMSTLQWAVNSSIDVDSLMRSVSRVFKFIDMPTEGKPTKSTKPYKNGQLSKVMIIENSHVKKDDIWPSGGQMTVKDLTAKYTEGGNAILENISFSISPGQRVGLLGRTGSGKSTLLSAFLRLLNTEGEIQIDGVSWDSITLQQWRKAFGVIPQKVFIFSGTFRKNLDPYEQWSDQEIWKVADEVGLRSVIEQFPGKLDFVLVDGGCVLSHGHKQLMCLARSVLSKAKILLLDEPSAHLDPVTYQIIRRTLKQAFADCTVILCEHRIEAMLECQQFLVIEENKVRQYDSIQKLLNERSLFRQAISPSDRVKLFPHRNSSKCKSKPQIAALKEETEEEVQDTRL
T3 sequence (P13569 with tags, fused parts or gaps N71I/DEL508-508): as the sequence (P13569 with tags, fused parts or gaps DEL508-508) above, with N71I counted along it
T4 sequence (P13569 with tags, fused parts or gaps K68I/DEL508-508): as the sequence (P13569 with tags, fused parts or gaps DEL508-508) above, with K68I counted along it
T2 sequence (P13569 with tags, fused parts or gaps S364F/DEL508-508): as the sequence (P13569 with tags, fused parts or gaps DEL508-508) above, with S364F counted along it

R170G-CFTR maturation [1]: improving
Effect of second mutation on corrector-induced maturation of F508del-CFTR [2]: only slightly reduced
Effect of second mutation on corrector-induced maturation of F508del-CFTR [3]: not affected
Effect of second mutation on corrector-induced rescue of F508del-CFTR [4]: no appreciable change
SMILES: CN(C(=O)c1cccc(-n2nc(C(F)(F)F)c3c2[C@@H](Oc2ccc(C(=O)O)cc2)CCC3)c1)c1ccc2c(c1)OC(F)(F)O2 [ARN23765]
Potency in rescuing CFTR function [5]: subnanomolar
